# Assay results from article PMC3784060 (Cancer Chemotherapy and Pharmacology, 2013).
# Where “and” joins values, the source holds several entries; their conditions need not be identical. Equal entries are not always repeated. Where two headings read alike, the source gives them in different places.
# Columns and labels:
# HL-60, MOLT-4, K562 = details: 24 or 72 vs. 2 h
# Protocol: Primary leukemia cells for in vitro studies were isolated from BM or PB obtained from AML or ALL patients enrolled on a separate University of Maryland, Baltimore, IRB-approved protocol for tissue collection and not treated on this clinical study. The cells were isolated by gradient centrifugation using LSM (Mediatech) according to the manufacturer’s protocol. Cells were used either fresh or after viable freezing (FBS/10 % DMSO). Primary leukemia cells were cultured in RPMI 1640 (Invitrogen, Grand Island, NY, USA) supplemented with 15 % heat-inactivated FBS (HyClone Laboratories Inc., Red Bank, NJ, USA) and 200 mM L-Glutamine (Invitrogen). Leukemia cell lines HL-60 (AML), MOLT-4 (T cell ALL), and K562 (chronic myelogenous leukemia [CML] in erythroid blast transformation) were purchased from American Type Culture Collection (ATCC, Manassas, VA, USA) and cultured in RPMI 1640 (Invitrogen) supplemented with 10 % heat-inactivated FBS (HyClone Laboratories Inc.) and 200 mM L-Glutamine (Invitrogen).
# [1] = tested on: relapsed/refractory AML and ALL; test: phase II study in acute leukemia: response, blast/WBC reduction, time to progression; type: in vivo, human; details: for median WBC count: pretreatment 2,650
# Protocol: Each cycle lasted 21 days. Patient could continue treatment on the study in the absence of disease progression or unacceptable toxicity. The next cycle of therapy could start if non-hematologic toxicity from previous cycle recovered to ≤grade 1, and dose delay of up to 3 weeks was allowed for recovery. Permanent dose reduction was required for any ≥grade 3 clinically significant non-hematologic adverse event (70 mg/m^2 → 50 mg/m^2; 50 mg/m^2 → 40 mg/m^2; 40 mg/m^2 → 30 mg/m^2; 30 mg/m^2 → discontinue). To allow for continued treatment of subjects whose cytopenias were due to leukemia and not due to drug toxicity, subsequent cycles of treatment were allowed if absolute neutrophil count (ANC) ≥0.5 × 10^9/L or for ANC <0.5 × 10^9/L but no more than 20 % below the baseline pretreatment levels and platelet count ≥20 × 10^9/L or platelets <20 × 10^9/L but no more than 20 % below the baseline pretreatment levels. Anti-emetic prophylaxis including serotonin-receptor antagonist, metoclopramide, or prochloperazine with or without dexamethasone was allowed. […] Dexamethasone 20 mg IV was given early if symptoms of cytokine release syndrome were observed.
# Response was assessed by bone marrow (BM) examination on day 21 of cycles 1 and 2, and every 6 weeks thereafter until complete remission or progressive disease (PD). Response was determined according to the revised recommendations of the International Working Group (IWG) for AML [33]. Toxicities were graded according to the National Cancer Institute Common Terminology Criteria for Adverse Events (NCI CTCAE), version 3.0 (http://ctep.cancer.gov/protocolDevelopment/electronic_applications/docs/ctcaev3.pdf). Hematologic and chemistry profiles were monitored on day 1 and 2 of each cycle or until resolution of acute toxicities and subsequently at least once a week or more frequently depending on the individual patient’s needs.
# The primary efficacy endpoint of the study was the ORR, including complete remission (CR), CR with incomplete count recovery (CRi), and partial remission.
# [2] = plasma pharmacokinetics (HPLC-MS/MS, population PK model); details: human, intravenous
# Protocol: Blood samples for PK evaluations (3 mL each) were collected into prechilled K2 EDTA tubes at 0, 0.25–0.5, 1–2, and 4 h after the end of the 2-h infusion on day 1 of cycles 1, 2, and 3. Samples were kept on ice and centrifuged within 1 h of collection at 2,700g/4 °C for 10 min; separated plasma was immediately frozen on dry ice and then stored at −20 °C or below.
# A 2-compartment PPK model was developed with data from two phase I studies in solid tumors [31, 32]. The model fits were conducted using NONMEM V, level 1.1 (GloboMax LLC), and a first-order conditional estimation method was employed for all model runs. The model included between-subject variability on clearance and volume of distribution, and mixed error terms.
# [3] = tested on: Mcl-1, PARP cleavage in HL-60, MOLT-4, K562; test: Western blot, leukemia cell lines in vitro; type: cell-based, human; details: most prominent with 6 and 24 h exposure
# Protocol: Primary leukemia cells for in vitro studies were isolated from BM or PB obtained from AML or ALL patients enrolled on a separate University of Maryland, Baltimore, IRB-approved protocol for tissue collection and not treated on this clinical study. The cells were isolated by gradient centrifugation using LSM (Mediatech) according to the manufacturer’s protocol. Cells were used either fresh or after viable freezing (FBS/10 % DMSO). Primary leukemia cells were cultured in RPMI 1640 (Invitrogen, Grand Island, NY, USA) supplemented with 15 % heat-inactivated FBS (HyClone Laboratories Inc., Red Bank, NJ, USA) and 200 mM L-Glutamine (Invitrogen). […]
# For Western blot analysis, leukemia cell pellets (primary leukemia cells, HL-60, MOLT-4, K562) were washed with PBS and lysed with RIPA buffer (Sigma-Aldrich, St. Louis, MO, USA) supplemented with Complete Mini™ protease inhibitor and PHOStop™ phosphatase inhibitors (Roche). […] Blots were washed three times, and the signal was detected with Amersham™ ECL™ detection systems (GE Healthcare, Pittsburgh, PA, USA). […] The Western blot signals were measured by densitometry using ImageJ 1.45I software (NIH, Bethesda, USA).
# [4] = cited from earlier work
# [5] = 13 patients with circulating blasts, within 1–8 days of first dose
# [6] = AML patients, all treated subjects
# [7] = patients with circulating blasts
smiles,measurement,setting,value
CCc1cnn2c(NCc3ccc[n+]([O-])c3)cc(N3CCCC[C@H]3CCO)nc12 [Dinaciclib],growth inhibitory and apoptosis-inducing effect of prolonged exposure,"HL-60, MOLT-4, K562",more potent growth inhibitory and apoptosis-inducing effect
same,objective responses by IWG criteria,"[1]; 50 mg/m^2 2-h infusion every 21 days, 20 patients",No objective responses
same,average reduction in BM blasts,[1]; 8 of 13 patients with follow-up BM evaluations,36%
same,patients with >50 % decrease in absolute blast count (ABC),[1]; [5],77%
same,patients with >80 % decrease in absolute blast count (ABC),[1]; [5],46%
same,TTP,[1]; ALL patients,1 to 8.14 weeks
same,median TTP,[1]; AML patients included in the initial randomization,5.14 weeks
same,Beta Posterior Mean (Bayes estimate of the response rate),[1]; [6],0.071
same,Difference in observed response rate (SCH727965 - Mylotarg),[1]; [6],-12.500%
same,Number of Non-responders,[1]; [6],12
same,Number of Responders,[1]; [6],0
same,Posterior Probability (This treatment is better),[1]; [6],0.200
same,Observed Response Rate (%),"[1]; AML patients, all treated subjects, frequentist approach",0.000%
same,"Median time to progression, Estimate",[1]; all treated AML patients,5.14 weeks
same,Number of Events (progression),[1]; all treated AML patients,10
same,median WBC count,[1]; day 2,"1,045 × 10^6/L"
same,median WBC count,[1]; day 8,"1,350 × 10^6/L"
same,median duration of the WBC nadir,[1]; in vivo,5 days
same,patients with temporary decrease in PB and/or marrow blasts,[1]; in vivo,60%
same,duration of ABC nadir,[1]; [7],7 days
same,median time to ABC nadir,[1]; [7],3 days
same,median ABC nadir,"[1]; patients with circulating blasts, pre-treatment 1,130",2e+08 L⁻¹
same,TTP,"[1]; two AML patients who crossed over from GO, individual values",7.86 weeks and 9.14 weeks
same,Cmax,[2],> 4 µM
same,concentration at 2 h,[2]; 40 mg/m^2,1010 ng/mL
same,concentration at 2.25 h,[2]; 40 mg/m^2,1100 ng/mL
same,concentration at 4 h,[2]; 40 mg/m^2,118 ng/mL
same,concentration at 6 h,[2]; 40 mg/m^2,42.4 ng/mL
same,AUC,[2]; 50 mg/m^2,3560 ng·h/mL
same,concentration at 2.25 h,[2]; 50 mg/m^2,707 ng/mL
same,concentration at 2.5 h,[2]; 50 mg/m^2,354 ng/mL
same,concentration at 3 h,[2]; 50 mg/m^2,195 ng/mL
same,concentration at 4 h,[2]; 50 mg/m^2,139 ng/mL
same,concentration at 6 h,[2]; 50 mg/m^2,36.7 ng/mL
same,AUC,[2]; 70 mg/m^2,4980 ng·h/mL
same,concentration at 2 h,[2]; 70 mg/m^2,1700 ng/mL
same,concentration at 2.25 h,[2]; 70 mg/m^2,724 ng/mL
same,concentration at 2.5 h,[2]; 70 mg/m^2,457 ng/mL
same,concentration at 3 h,[2]; 70 mg/m^2,307 ng/mL
same,concentration at 4 h,[2]; 70 mg/m^2,125 ng/mL
same,concentration at 6 h,[2]; 70 mg/m^2,52.2 ng/mL
same,Mcl-1 expression and PARP cleavage,[3],down-regulates the expression of the anti-apoptotic protein Mcl-1 independently of caspases and induces PARP cleavage
same,recommended phase II dose (RPTD),"[4]; 2-h infusion on days 1, 8, 15 every 28 days",12 mg/m^2
same,recommended phase II dose (RPTD),[4]; 2-h infusion once every 21 days,50 mg/m^2
same,average dinaciclib concentration,"[4]; 8-h continuous infusion, 7.4–50 mg/m^2, preliminary","200–1,031 nM"
same,average dinaciclib concentration,"[4]; 24-h continuous infusion, 7.4–14.6 mg/m^2, preliminary",82.3 to 184 nM
